# Assay results from ChEMBL document CHEMBL6182945, “MMAE-Based Peptide-Drug Conjugates Targeting GPC3 for Precision Chemoradiotherapy in Hepatocellular Carcinoma” (J Med Chem, 2025).
# The source made the active and inactive calls. The rule behind the calls is not given here.
# Legend:
# Huh-7 [1] = assay: Induction of immunogenic cell death (ICD) in human Huh-7 cells assessed as externalization of calreticulin (CALR) on the cell membrane at 100 nM measured after 24 hrs by immunofluorescence assay; type: functional, cell-based
# Huh-7 [2] = assay: In vivo antitumor activity against human Huh-7 cells xenografted in female BALB/c mouse assessed as delay in tumor growth at 1 mg/kg, iv followed by irradiated with 2 Gy for 2 consecutive days, once a week for 3 weeks measured on day 22; type: functional, organism-based; details: time 22.0 day
# LX-2 [3] = assay: Cell cycle arrest in human LX-2 cells assessed as accumulation of cells at S phase at 30 nM measured after 24 hrs incubation by PI staining based flow cytometry (reference value: 36.93%); type: functional
# Huh-7 [4] = assay: In vivo antitumor activity against human Huh-7 cells xenografted in female BALB/c mouse assessed as reduction in Ki67 expression in tumor at 2 mg/kg, iv total 4 doses measured on day 17 relative to control; type: functional, organism-based; details: time 17.0 day
# LX-2 [5] = assay: Cell cycle arrest in human LX-2 cells assessed as accumulation of cells at S phase at 100 nM measured after 24 hrs incubation by PI staining based flow cytometry (reference value: 36.93%); type: functional
# Huh-7 [6] = assay: Cell cycle arrest in human Huh-7 cells assessed as accumulation of cells at G2/M phase at 30 nM measured after 24 hrs incubation by PI staining based flow cytometry (reference value: 18.88%); type: functional
# Huh-7 [7] = assay: Cell cycle arrest in human Huh-7 cells assessed as accumulation of cells at S phase at 30 nM measured after 24 hrs incubation by PI staining based flow cytometry (reference value: 33.15%); type: functional
# Huh-7 [8] = assay: Cell cycle arrest in human Huh-7 cells assessed as accumulation of cells at G0/G1 phase at 50 nM measured after 24 hrs incubation by PI staining based flow cytometry (reference value: 44.20%); type: functional
# LX-2 [9] = assay: Cell cycle arrest in human LX-2 cells assessed as accumulation of cells at G0/G1 phase at 100 nM measured after 24 hrs incubation by PI staining based flow cytometry (reference value: 48.42%); type: functional
# Hep 3B2 [10] = assay: Cell cycle arrest in human Hep3B cells assessed as accumulation of cells at G0/G1 phase at 30 nM measured after 24 hrs incubation by PI staining based flow cytometry (reference value: 48%); type: functional
# Huh-7 [11] = assay: Cell cycle arrest in human Huh-7 cells assessed as accumulation of cells at S phase at 10 nM measured after 24 hrs incubation by PI staining based flow cytometry (reference value: 33.15%); type: functional
# Hep 3B2 [12] = assay: Cell cycle arrest in human Hep3B cells assessed as accumulation of cells at S phase at 10 nM measured after 24 hrs incubation by PI staining based flow cytometry (reference value: 28.91%); type: functional
# Huh-7 [13] = assay: In vivo antitumor activity against human Huh-7 cells xenografted in female BALB/c mouse assessed as delay in tumor growth at 1 mg/kg, iv for 2 consecutive days, once a week for 3 weeks measured on day 22; type: functional, organism-based; details: time 22.0 day
# Huh-7 [14] = assay: Cell cycle arrest in human Huh-7 cells assessed as accumulation of cells at G0/G1 phase at 100 nM measured after 24 hrs incubation by PI staining based flow cytometry (reference value: 47.97%); type: functional
# Huh-7 [15] = assay: Induction of DNA damage in human irradiated Huh-7 cells assessed as increase in DNA double break by measuring number of gamma-H2AX foci formation at 100 nM measured after 24 hrs by immunostaining assay (reference value: 6 +/- 2 foci); type: functional
# Huh-7 [16] = assay: Cell cycle arrest in human Huh-7 cells assessed as accumulation of cells at S phase at 50 nM measured after 30 hrs incubation by PI staining based flow cytometry (reference value: 37.30%); type: functional
# Huh-7 [17] = assay: In vivo antitumor activity against human Huh-7 cells xenografted in female BALB/c mouse assessed as reduction in tumor volume at 2 mg/kg, iv total 4 doses measured on day 17 relative to control; type: functional; design: scale not given: the % may be the effect or the level left; details: time 17 day
# Huh-7 [18] = assay: Induction of immunogenic cell death (ICD) in human Huh-7 cells assessed as translocation of HMGB1 from nucleus to cytoplasm at 100 nM measured after 24 hrs by immunofluorescence assay; type: functional, cell-based
# Huh-7 [19] = assay: Cell cycle arrest in human Huh-7 cells assessed as accumulation of cells at phase G2/M at 50 nM measured after 30 hrs incubation by PI staining based flow cytometry (reference value: 18.42%); type: functional
# Huh-7 [20] = assay: In vivo apoptotic activity against human Huh-7 cells xenografted in female BALB/c mouse assessed as tumor apoptosis at 2 mg/kg, iv total 4 doses measured on day 17 relative to control by TUNEL assay; type: functional, organism-based; details: time 17.0 day
# Huh-7 [21] = assay: Cell cycle arrest in human Huh-7 cells assessed as accumulation of cells at phase G2/M at 50 nM measured after 18 hrs incubation by PI staining based flow cytometry (reference value: 18.42%); type: functional
# Huh-7 [22] = assay: Decrease in CDC25C expression in human irradiated Huh-7 cells at 100 nM measured after 24 hrs by Western blot analysis; type: functional, cell-based
# Huh-7 [23] = assay: Cell cycle arrest in human Huh-7 cells assessed as accumulation of cells at G0/G1 phase at 10 nM measured after 24 hrs incubation by PI staining based flow cytometry (reference value: 47.97%); type: functional
# Huh-7 [24] = assay: Cell cycle arrest in human Huh-7 cells assessed as accumulation of cells at G2/M phase at 10 nM measured after 24 hrs incubation by PI staining based flow cytometry (reference value: 18.88%); type: functional
# Huh-7 [25] = assay: In vivo antitumor activity against human Huh-7 cells xenografted in female BALB/c mouse assessed as gamma-H2AX positive cells at 1 mg/kg, iv followed by irradiated with 2 Gy for 2 consecutive days, once a week for 3 weeks measured on day 22; type: functional, organism-based; details: time 22.0 day
# LX-2 [26] = assay: Cell cycle arrest in human LX-2 cells assessed as accumulation of cells at G2/M phase at 100 nM measured after 24 hrs incubation by PI staining based flow cytometry (reference value: 14.65%); type: functional
# Huh-7 [27] = assay: Cell cycle arrest in human Huh-7 cells assessed as accumulation of cells at G0/G1 phase at 50 nM measured after 18 hrs incubation by PI staining based flow cytometry (reference value: 44.20%); type: functional
# Huh-7 [28] = assay: Cell cycle arrest in human Huh-7 cells assessed as accumulation of cells at G0/G1 phase at 30 nM measured after 24 hrs incubation by PI staining based flow cytometry (reference value: 47.97%); type: functional
# Huh-7 [29] = assay: In vivo antitumor activity against human Huh-7 cells xenografted in female BALB/c mouse assessed as reduction in tumor volume at 1 mg/kg, iv total 4 doses measured on day 17 relative to control; type: functional; design: scale not given: the % may be the effect or the level left; details: time 17 day
# Hep 3B2 [30] = assay: Cell cycle arrest in human Hep3B cells assessed as accumulation of cells at G2/M phase at 10 nM measured after 24 hrs incubation by PI staining based flow cytometry (reference value: 23%); type: functional
# Hep 3B2 [31] = assay: Cell cycle arrest in human Hep3B cells assessed as accumulation of cells at G0/G1 phase at 10 nM measured after 24 hrs incubation by PI staining based flow cytometry (reference value: 48%); type: functional
# LX-2 [32] = assay: Cell cycle arrest in human LX-2 cells assessed as accumulation of cells at G2/M phase at 30 nM measured after 24 hrs incubation by PI staining based flow cytometry (reference value: 14.65%); type: functional
structure (smiles),measurement,setting,value
CC[C@H](C)[C@@H]([C@@H](CC(=O)N1CCC[C@H]1[C@H](OC)[C@@H](C)C(=O)N[C@H](C)[C@@H](O)c1ccccc1)OC)N(C)C(=O)[C@@H](NC(=O)[C@H](C(C)C)N(C)C(=O)OCc1ccc(NC(=O)[C@H](CCCNC(N)=O)NC(=O)[C@@H](NC(=O)CCCCCN2C(=O)CC(SC[C@H](N)C(=O)N[C@@H](CO)C(=O)N[C@@H](CC(N)=O)C(=O)N[C@@H](CC(=O)O)C(=O)N[C@@H](CCCNC(=N)N)C(=O)N3CCC[C@@H]3C(=O)N3CCC[C@@H]3C(=O)N[C@@H](CC(N)=O)C(=O)N[C@H](C(=O)N[C@@H](CC(C)C)C(=O)N[C@@H](CCC(N)=O)C(=O)N[C@@H](CCCCN)C(=O)N[C@@H](CCCNC(=N)N)C(N)=O)[C@@H](C)CC)C2=O)C(C)C)cc1)C(C)C (some centres not stated),Activity,Huh-7 [1],Active
same,Activity,Huh-7 [2],Active
same,Activity,LX-2 [3],38.52%
same,Activity,Huh-7 [4],Active
same,Activity,LX-2 [5],37.25%
same,Activity,Huh-7 [6],49.02%
same,Activity,Huh-7 [7],13.76%
same,Activity,Huh-7 [8],28.27%
same,Activity,LX-2 [9],39.1%
same,Activity,Hep 3B2 [10],28.5%
same,Activity,Huh-7 [11],13.8%
same,Activity,Hep 3B2 [12],19.52%
same,Activity,Huh-7 [13],Active
same,Activity,Huh-7 [14],12.12%
same,Activity,Huh-7 [15],18
same,Activity,Huh-7 [16],13.43%
same,Activity,Huh-7 [17],66%
same,Activity,Huh-7 [18],Active
same,Activity,Huh-7 [19],54.83%
same,Activity,Huh-7 [20],Active
same,Activity,Huh-7 [21],44.55%
same,Activity,Huh-7 [22],Active
same,Activity,Huh-7 [23],50.55%
same,Activity,Huh-7 [24],35.65%
same,Activity,Huh-7 [25],Active
same,Activity,LX-2 [26],23.65%
same,Activity,Huh-7 [27],31.13%
same,Activity,Huh-7 [28],37.22%
same,Activity,Huh-7 [29],40%
same,Activity,Hep 3B2 [30],39.22%
same,Activity,Hep 3B2 [31],41.26%
same,Activity,LX-2 [32],15.25%
